Data published in ChEMBL document CHEMBL5725872, “Benzofuran compounds for the treatment of hepatitis C” (2018).

Experiment: HCV Replicon Luciferase Assay: To evaluate compound efficacy, titrated compounds were transferred to sterile 384-well tissue culture treated plates, and the plates were seeded with HCV replicon cells (50 μL at a density of 2.4×10^3 cells/well) in DMEM containing 4% FBS (final DMSO concentration at 0.5%). After 3 days incubation at 37° C., cells were analyzed for Renilla Luciferase activity using the EnduRen substrate (Promega cat #E6485) according to the manufacturer's directions. Briefly, the EnduRen substrate was diluted in DMEM and then added to the plates to a final concentration of 7.5 μM. The plates were incubated for at least 1 h at 37° C. then read on a Viewlux Imager (PerkinElmer) using a luminescence program. The 50% effective concentration (EC50) was calculated using the four-parameter logistic Formula noted above. To assess cytotoxicity of compounds, Cell Titer-Blue (Promega) was added to the EnduRen-containing plates and incubated for at least 4 hrs at 37° C. The fluorescence signal from each well was read using a Viewlux Imager. All CC50 values were calculated using the four-parameter logistic Formula.

For `CNC(=O)c1c(-c2ccc(F)cc2)oc2cc(N(CCCF)S(C)(=O)=O)c(-c3cccc(C(=O)N[C@@H](C)C(F)(F)F)c3)cc12`, the EC50 (72 h) was < 0.1 µM.
`CNC(=O)c1c(-c2ccc(F)cc2)oc2cc(N(CCF)S(C)(=O)=O)c(-c3cccc(C(=O)N4CCC[C@H]4CO)c3)cc12` showed an EC50 (72 h) of 0.1 to 1 µM.
For `CNC(=O)c1c(-c2ccc(F)cc2)oc2cc(N(CCCF)S(C)(=O)=O)c(-c3cccc(C(=O)N[C@H](C)C(F)(F)F)c3)cc12`, the EC50 (72 h) was < 0.1 µM.
In the case of `CNC(=O)c1c(-c2ccc(F)cc2)oc2cc(N(C(F)F)S(C)(=O)=O)c(-c3cccc(C(=O)O)c3)cc12`, the EC50 (72 h) is reported as > 10 µM.
With `CNC(=O)c1c(-c2ccc(F)cc2)oc2cc(N(CCF)S(C)(=O)=O)c(-c3cccc(C(=O)N4CC[C@H](O)C4)c3)cc12` the EC50 (72 h) was > 1 µM.
In the case of `CNC(=O)c1c(-c2ccc(F)cc2)oc2cc(N(CCCF)S(C)(=O)=O)c(-c3cccc(C(=O)NC(C)(C)C)c3)cc12`, the EC50 is reported as < 0.1 µM and the EC50 (72 h) is reported as < 0.1 µM.
With `CNC(=O)c1c(-c2ccc(F)cc2)oc2cc(N(CCF)S(C)(=O)=O)c(-c3cccc(C(=O)NC(C)(C)C)c3)cc12` the EC50 was < 0.1 µM and the EC50 (72 h) was < 0.1 µM.
With `CC[C@H](NC(=O)c1cccc(-c2cc3c(C(=O)NC)c(-c4ccc(F)cc4)oc3cc2N(CCF)S(C)(=O)=O)c1)C1CC1` the EC50 (72 h) was < 0.1 µM.
